Assay results as given in ChEMBL document CHEMBL3046354, “Design, synthesis, and insecticidal activities of novel analogues of neonicotinoids: replacement of nitromethylene with nitroconjugated system” (2009).

Experiments:
Format in all cases: functional
Aphis craccivora [1] = test: Insecticidal activity against Aphis craccivora (cowpea aphid) infested horsebean plant leaves assessed as insect mortality measured 24 hr post compound treatment by leaf-dip method
Aphis craccivora [2] = test: Insecticidal activity against Aphis craccivora (cowpea aphid) infested horsebean plant leaves assessed as insect mortality at 500 mg/L measured 24 hr post compound treatment by leaf-dip method
Mythimna separata [3] = test: Insecticidal activity against Mythimna separata (Oriental armyworm) second-instar larvae infested on compound pre-treated corn leaves assessed as insect mortality at 500 mg/L measured 48 hr post compound treatment by leaf-dip method
Mythimna separata [4] = test: Insecticidal activity against Mythimna separata(Oriental armyworm) second-instar larvae infested on compound pre-treated corn leaves assessed as insect mortality measured 48 hr post compound treatment by leaf-dip method
Nephotettix cincticeps [5] = test: Insecticidal activity against Nephotettix cincticeps (green rice leafhopper) grown on booting stage rice plant stems assessed as insect mortality measured 48 hr post compound treatment by leaf-dip method
Laodelphax striatellus [6] = test: Potency index, ratio of LC50 for imidacloprid to LC50 for test compound against Laodelphax striatella (small brown planthopper) grown on booting stage rice plant stems assessed as insect mortality measured 48 hr post compound treatment by leaf-dip method
Laodelphax striatellus [7] = test: Insecticidal activity against Laodelphax striatella (small brown planthopper) grown on booting stage rice plant stems assessed as insect mortality measured 48 hr post compound treatment by leaf-dip method
Nephotettix cincticeps [8] = test: Potency index, ratio of LC50 for imidacloprid to LC50 for test compound against Nephotettix cincticeps (green rice leafhopper) grown on booting stage rice plant stems assessed as insect mortality measured 48 hr post compound treatment by leaf-dip method

## O=[N+]([O-])/C(=C\c1cccs1)C1=NCCCN1Cc1ccc(Cl)nc1
Aphis craccivora [1]
  LC50: 20.5 µM
Aphis craccivora [2]
  mortality at 500 µg/mL: 100%
Mythimna separata [3]
  mortality at 500 µg/mL: 73.3%

## Cc1ccc(/C=C(/C2=NCCCN2Cc2ccc(Cl)nc2)[N+](=O)[O-])o1
Aphis craccivora [1]
  LC50: 698 µM
Aphis craccivora [2]
  mortality at 500 µg/mL: 100%
Mythimna separata [3]
  mortality at 500 µg/mL: 33.3%

## O=[N+]([O-])/C(=C\c1ccc(Cl)o1)C1=NCCCN1Cc1ccc(Cl)nc1
Aphis craccivora [1]
  LC50: 60.9 µM
Aphis craccivora [2]
  mortality at 500 µg/mL: 100%
Mythimna separata [3]
  mortality at 500 µg/mL: 96.7%

## Cc1ccc(/C=C(/C2=NCCCN2Cc2ccc(Cl)nc2)[N+](=O)[O-])s1
Aphis craccivora [1]
  LC50: 24.6 µM
Aphis craccivora [2]
  mortality at 500 µg/mL: 100%
Mythimna separata [3]
  mortality at 500 µg/mL: 63.3%

## O=[N+]([O-])/C(=C\c1ccco1)C1=NCCN1Cc1ccccc1
Aphis craccivora [2]
  mortality at 500 µg/mL: 0%
Mythimna separata [3]
  mortality at 500 µg/mL: 46.6%

## O=[N+]([O-])/C(=C\c1ccco1)C1=NCCN1Cc1ccc(Cl)cc1
Aphis craccivora [1]
  LC50: 234 µM
Aphis craccivora [2]
  mortality at 500 µg/mL: 98%
Mythimna separata [3]
  mortality at 500 µg/mL: 67.2%

## O=[N+]([O-])/C(=C\c1ccco1)C1=NCCN1Cc1cnc(Cl)s1
Mythimna separata [4]
  LC50: 107 µM
Aphis craccivora [1]
  LC50: 3.5 µM
Aphis craccivora [2]
  mortality at 500 µg/mL: 100%
Mythimna separata [3]
  mortality at 500 µg/mL: 100%

## Cl.O=[N+]([O-])/C(=C\c1ccco1)C1=NCCN1Cc1ccc(Cl)nc1
Nephotettix cincticeps [5]
  LC50: 1.3 µM
Mythimna separata [4]
  LC50: 24.7 µM
Laodelphax striatellus [6]
  RatioLC50: 6.9
Aphis craccivora [1]
  LC50: 3.72 µM
Aphis craccivora [2]
  mortality at 500 µg/mL: 100%
Laodelphax striatellus [7]
  LC50: 7.23 µM
Mythimna separata [3]
  mortality at 500 µg/mL: 100%
Nephotettix cincticeps [8]
  RatioLC50: 16

## Cc1ccc(/C=C(/C2=NCCN2Cc2ccc(Cl)nc2)[N+](=O)[O-])o1
Nephotettix cincticeps [5]
  LC50: 4.05 µM
Mythimna separata [4]
  LC50: 53.1 µM
Aphis craccivora [1]
  LC50: 6.34 µM
Aphis craccivora [2]
  mortality at 500 µg/mL: 100%
Mythimna separata [3]
  mortality at 500 µg/mL: 100%

## CCc1ccc(/C=C(/C2=NCCN2Cc2ccc(Cl)nc2)[N+](=O)[O-])o1
Mythimna separata [4]
  LC50: 97.9 µM
Aphis craccivora [1]
  LC50: 1.82 µM
Aphis craccivora [2]
  mortality at 500 µg/mL: 100%
Mythimna separata [3]
  mortality at 500 µg/mL: 100%

## Cc1cc(/C=C(/C2=NCCN2Cc2ccc(Cl)nc2)[N+](=O)[O-])oc1C
Aphis craccivora [1]
  LC50: 4.65 µM
Aphis craccivora [2]
  mortality at 500 µg/mL: 100%
Mythimna separata [3]
  mortality at 500 µg/mL: 0%

## Cl.O=[N+]([O-])/C(=C\c1ccc(CO)o1)C1=NCCN1Cc1ccc(Cl)nc1
Nephotettix cincticeps [5]
  LC50: 1.11 µM
Mythimna separata [4]
  LC50: 33.9 µM
Aphis craccivora [1]
  LC50: 10.6 µM
Aphis craccivora [2]
  mortality at 500 µg/mL: 100%
Mythimna separata [3]
  mortality at 500 µg/mL: 100%
Nephotettix cincticeps [8]
  RatioLC50: 18.8

## O=[N+]([O-])/C(=C\c1ccc(Cl)o1)C1=NCCN1Cc1ccc(Cl)nc1
Mythimna separata [4]
  LC50: 37.6 µM
Aphis craccivora [1]
  LC50: 7.54 µM
Aphis craccivora [2]
  mortality at 500 µg/mL: 100%
Mythimna separata [3]
  mortality at 500 µg/mL: 100%

## O=[N+]([O-])/C(=C\c1ccc(Br)o1)C1=NCCN1Cc1ccc(Cl)nc1
Nephotettix cincticeps [5]
  LC50: 2.54 µM
Mythimna separata [4]
  LC50: 39.7 µM
Aphis craccivora [1]
  LC50: 7.3 µM
Aphis craccivora [2]
  mortality at 500 µg/mL: 100%
Mythimna separata [3]
  mortality at 500 µg/mL: 100%

## O=[N+]([O-])/C(=C\c1ccc([N+](=O)[O-])o1)C1=NCCN1Cc1ccc(Cl)nc1
Nephotettix cincticeps [5]
  LC50: 154 µM
Mythimna separata [4]
  LC50: 69.5 µM
Aphis craccivora [1]
  LC50: 11.1 µM
Aphis craccivora [2]
  mortality at 500 µg/mL: 100%
Mythimna separata [3]
  mortality at 500 µg/mL: 100%

## O=[N+]([O-])/C(=C\c1ccoc1)C1=NCCN1Cc1ccc(Cl)nc1
Mythimna separata [4]
  LC50: 55.3 µM
Aphis craccivora [1]
  LC50: 4.46 µM
Aphis craccivora [2]
  mortality at 500 µg/mL: 100%
Mythimna separata [3]
  mortality at 500 µg/mL: 100%

## Cl.O=[N+]([O-])/C(=C\c1cccs1)C1=NCCN1Cc1ccc(Cl)nc1
Nephotettix cincticeps [5]
  LC50: 1.22 µM
Mythimna separata [4]
  LC50: 52.9 µM
Laodelphax striatellus [6]
  RatioLC50: 3.6
Aphis craccivora [1]
  LC50: 4.23 µM
Aphis craccivora [2]
  mortality at 500 µg/mL: 100%
Laodelphax striatellus [7]
  LC50: 14 µM
Mythimna separata [3]
  mortality at 500 µg/mL: 100%
Nephotettix cincticeps [8]
  RatioLC50: 17.1

## O=[N+]([O-])/C(=C\c1cc(Br)cs1)C1=NCCN1Cc1ccc(Cl)nc1
Aphis craccivora [2]
  mortality at 500 µg/mL: 0%
Mythimna separata [3]
  mortality at 500 µg/mL: 0%

## Cc1ccc(/C=C(/C2=NCCN2Cc2ccc(Cl)nc2)[N+](=O)[O-])s1
Mythimna separata [4]
  LC50: 29.7 µM
Aphis craccivora [1]
  LC50: 3.11 µM
Aphis craccivora [2]
  mortality at 500 µg/mL: 100%
Mythimna separata [3]
  mortality at 500 µg/mL: 100%

## O=[N+]([O-])/C(=C\c1ccsc1)C1=NCCN1Cc1ccc(Cl)nc1
Aphis craccivora [2]
  mortality at 500 µg/mL: 31.9%
Mythimna separata [3]
  mortality at 500 µg/mL: 0%

## O=[N+]([O-])/C(=C\c1ccc[nH]1)C1=NCCN1Cc1ccc(Cl)nc1
Mythimna separata [4]
  LC50: 39.7 µM
Aphis craccivora [1]
  LC50: 11.2 µM
Aphis craccivora [2]
  mortality at 500 µg/mL: 100%
Mythimna separata [3]
  mortality at 500 µg/mL: 100%

## O=[N+]([O-])/C(=C\c1ccco1)C1=NCCCN1Cc1ccc(Cl)nc1
Aphis craccivora [1]
  LC50: 76.4 µM
Aphis craccivora [2]
  mortality at 500 µg/mL: 100%
Mythimna separata [3]
  mortality at 500 µg/mL: 16.7%

## O=[N+]([O-])/N=C1\NCCN1Cc1ccc(Cl)nc1 [IMIDACLOPRID]
Nephotettix cincticeps [5]
  LC50: 20.9 µM
Aphis craccivora [1]
  LC50: 35 µM
Aphis craccivora [2]
  mortality at 500 µg/mL: 100%
Laodelphax striatellus [7]
  LC50: 49.8 µM
